Measurements as given in ChEMBL document CHEMBL1201862, “PubChem BioAssay data set” (2004).
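Where inhibition never reached the appropriate level, the endpoint shown equals the highest concentration tested. Otherwise, values were interpolated linearly from a five-concentration, 48-hour dose response in 96-well plates. GI50: concentration for 50% inhibition of growth.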 Calls of active or inactive are those of the source. No stated cut-off is given here; in the data, active = GI50 up to about 1.1 µM and inactive = higher.

What was measured:
Assay in all cases: DTP human tumour cell line panel, 48 h
SF-539 = system: SF-539
UACC-62 = system: UACC-62
K562 = system: K562
UACC-257 = system: UACC-257
A549 = system: A549
HCT-15 = system: HCT-15
HCT-116 = system: HCT-116
HOP-62 = system: HOP-62
SK-MEL-28 = system: SK-MEL-28
XF498 = system: XF498
SK-MEL-2 = system: SK-MEL-2
OVCAR-3 = system: OVCAR-3
HOP-92 = system: HOP-92
HL-60 = system: HL-60
SN12C = system: SN12C
SK-MEL-5 = system: SK-MEL-5
SK-OV-3 = system: SK-OV-3
SF-295 = system: SF-295
CCRF-CEM = system: CCRF-CEM
DMS-273 = system: DMS-273
M14 = system: M14
CAKI-1 = system: CAKI-1
Malme-3M = system: Malme-3M
IGROV-1 = system: IGROV-1
M19-MEL = system: M19-MEL
COLO 205 = system: COLO 205
DMS-114 = system: DMS-114
SNB-75 = system: SNB-75
LXFL 529 = system: LXFL 529
MOLT-4 = system: MOLT-4
SW-620 = system: SW-620
LOX IMVI = system: LOX IMVI
SNB-78 = system: SNB-78
UO-31 = system: UO-31
HCC 2998 = system: HCC 2998
HT-29 = system: HT-29
SF-268 = system: SF-268
OVCAR-4 = system: OVCAR-4
HOP-18 = system: HOP-18
NCI-H23 = system: NCI-H23
RPMI-8226 = system: RPMI-8226
NCI-H226 = system: NCI-H226
OVCAR-5 = system: OVCAR-5
DLD-1 = system: DLD-1
A498 = system: A498
KM12 = system: KM12
786-0 = system: 786-0
SR = system: SR
RXF 393 = system: RXF 393
NCI-H522 = system: NCI-H522
BT-549 = system: BT-549
OVCAR-8 = system: OVCAR-8
NCI/ADR-RES = system: NCI/ADR-RES
EKVX = system: EKVX
MCF7 = system: MCF7
KM-20L2 = system: KM-20L2
MDA-N = system: MDA-N
SNB-19 = system: SNB-19
Hs-578T = system: Hs-578T
MDA-MB-231 = system: MDA-MB-231
ACHN = system: ACHN
NCI-H460 = system: NCI-H460
DU-145 = system: DU-145
MDA-MB-435 = system: MDA-MB-435
TK-10 = system: TK-10
PC-3 = system: PC-3
T47D = system: T47D
U-251 = system: U-251

## O=C1NC2C3CC(OCc4ccccc4)(OCc4ccccc4)C2OC3O1 (stereo not drawn)
SF-539
  GI50: > 50 µM (inactive)
UACC-62
  GI50: > 50 µM (inactive)
K562
  GI50: > 50 µM (inactive)
UACC-257
  GI50: 24.8 µM (inactive)
A549
  GI50: > 50 µM (inactive)
HCT-15
  GI50: > 50 µM
HCT-116
  GI50: > 50 µM (inactive)
HOP-62
  GI50: > 50 µM (inactive)
SK-MEL-28
  GI50: > 50 µM (inactive)
XF498
  GI50: > 50 µM (inactive)
SK-MEL-2
  GI50: > 50 µM (inactive)
OVCAR-3
  GI50: > 50 µM (inactive)
HOP-92
  GI50: > 50 µM (inactive)
HL-60
  GI50: > 50 µM (inactive)
SN12C
  GI50: > 50 µM (inactive)
SK-MEL-5
  GI50: > 50 µM (inactive)
SK-OV-3
  GI50: > 50 µM (inactive)
SF-295
  GI50: > 50 µM (inactive)
CCRF-CEM
  GI50: > 50 µM (inactive)
DMS-273
  GI50: > 50 µM (inactive)
M14
  GI50: > 50 µM (inactive)
CAKI-1
  GI50: > 50 µM (inactive)
Malme-3M
  GI50: > 50 µM (inactive)
IGROV-1
  GI50: > 50 µM (inactive)
M19-MEL
  GI50: > 50 µM (inactive)
COLO 205
  GI50: > 50 µM (inactive)
DMS-114
  GI50: > 50 µM (inactive)
SNB-75
  GI50: 48.6 µM (inactive)
LXFL 529
  GI50: < 0.005 µM (active)
MOLT-4
  GI50: > 50 µM (inactive)
SW-620
  GI50: > 50 µM (inactive)
LOX IMVI
  GI50: > 50 µM (inactive)
SNB-78
  GI50: < 0.005 µM (active)
UO-31
  GI50: > 50 µM (inactive)
HCC 2998
  GI50: > 50 µM (inactive)
HT-29
  GI50: > 50 µM (inactive)
SF-268
  GI50: > 50 µM (inactive)
OVCAR-4
  GI50: < 0.005 µM (active)
HOP-18
  GI50: > 50 µM (inactive)
NCI-H23
  GI50: > 50 µM (inactive)
RPMI-8226
  GI50: > 50 µM (inactive)
NCI-H226
  GI50: > 50 µM (inactive)
OVCAR-5
  GI50: > 50 µM (inactive)
DLD-1
  GI50: > 50 µM (inactive)
A498
  GI50: > 50 µM (inactive)
KM12
  GI50: > 50 µM (inactive)
786-0
  GI50: > 50 µM (inactive)

## CCCCS(=N)(=O)CC[C@H](N)C(=O)O (stereo partly drawn) [BUTHIONINE SULFOXIME]
SF-539
  GI50: 4910 µM (inactive)
UACC-62
  GI50: > 5000 µM (inactive)
SR
  GI50: 286 µM (inactive)
K562
  GI50: > 5000 µM (inactive)
UACC-257
  GI50: > 5000 µM (inactive)
A549
  GI50: > 5000 µM (inactive)
HCT-15
  GI50: 4250 µM
RXF 393
  GI50: > 5000 µM (inactive)
NCI-H522
  GI50: 140 µM (inactive)
HCT-116
  GI50: > 5000 µM (inactive)
HOP-62
  GI50: > 5000 µM (inactive)
BT-549
  GI50: > 5000 µM (inactive)
OVCAR-8
  GI50: 2320 µM (inactive)
SK-MEL-28
  GI50: > 5000 µM (inactive)
NCI/ADR-RES
  GI50: 2840 µM (inactive)
XF498
  GI50: 476 µM (inactive)
SK-MEL-2
  GI50: > 5000 µM (inactive)
OVCAR-3
  GI50: > 4130 µM (inactive)
HOP-92
  GI50: 171 µM (inactive)
HL-60
  GI50: 665 µM (inactive)
SN12C
  GI50: > 5000 µM (inactive)
EKVX
  GI50: 1450 µM (inactive)
SK-MEL-5
  GI50: > 5000 µM (inactive)
SK-OV-3
  GI50: > 5000 µM (inactive)
SF-295
  GI50: > 5000 µM (inactive)
MCF7
  GI50: > 4190 µM (inactive)
CCRF-CEM
  GI50: 1040 µM (inactive)
KM-20L2
  GI50: > 5000 µM (inactive)
DMS-273
  GI50: > 5000 µM (inactive)
MDA-N
  GI50: > 10000 µM (inactive)
M14
  GI50: > 5000 µM (inactive)
CAKI-1
  GI50: 3400 µM (inactive)
SNB-19
  GI50: > 5000 µM (inactive)
Malme-3M
  GI50: > 5000 µM (inactive)
IGROV-1
  GI50: 2110 µM (inactive)
M19-MEL
  GI50: > 5000 µM (inactive)
COLO 205
  GI50: > 5000 µM (inactive)
Hs-578T
  GI50: > 2810 µM (inactive)
MDA-MB-231
  GI50: > 5000 µM (inactive)
DMS-114
  GI50: > 5000 µM (inactive)
SNB-75
  GI50: 2320 µM (inactive)
ACHN
  GI50: > 5000 µM (inactive)
NCI-H460
  GI50: 4730 µM (inactive)
MOLT-4
  GI50: 2550 µM (inactive)
SW-620
  GI50: > 5000 µM (inactive)
LOX IMVI
  GI50: 237 µM (inactive)
SNB-78
  GI50: > 5000 µM (inactive)
UO-31
  GI50: 2480 µM (inactive)
HCC 2998
  GI50: > 5000 µM (inactive)
HT-29
  GI50: > 5000 µM (inactive)
SF-268
  GI50: 4260 µM (inactive)
DU-145
  GI50: > 5000 µM (inactive)
OVCAR-4
  GI50: 2290 µM (inactive)
HOP-18
  GI50: > 5000 µM (inactive)
NCI-H23
  GI50: 3420 µM (inactive)
RPMI-8226
  GI50: 2460 µM (inactive)
MDA-MB-435
  GI50: > 5000 µM (inactive)
NCI-H226
  GI50: > 5000 µM (inactive)
OVCAR-5
  GI50: > 5000 µM (inactive)
TK-10
  GI50: > 5000 µM (inactive)
PC-3
  GI50: > 5000 µM (inactive)
DLD-1
  GI50: > 5000 µM (inactive)
T47D
  GI50: > 5000 µM (inactive)
A498
  GI50: 4820 µM (inactive)
U-251
  GI50: > 5000 µM (inactive)
KM12
  GI50: > 5000 µM (inactive)
